{"source": "paper PMC10648349", "about": "“Aromatic Diboronic Acids as Effective KPC/AmpC Inhibitors” (Molecules, 2023)", "key": {"[1]": {"test_system": "C. guilliermondii IBA 155", "experiment": "antifungal activity (disc-diffusion, MIC, MFC)", "type": "cell-based, Candida guilliermondii", "conditions": "Meyerozyma guilliermondii, IBA155; for zone of inhibition at 0.4 mg/disc: 0.4 mg per disc, 9 mm disc (fluconazole 0.025 mg, 6 mm disc), - no zone, read-out: Diameter of inhibition zone; for MIC: fluconazole by Etest", "how_it_was_run": "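Following CLSI and EUCAST guidance, DMSO-dissolved compounds were tested by broth MIC, by minimal bactericidal (bacteria) or fungicidal (yeast) concentration, and by disc diffusion at 0.4 mg per disc. Comparators were fluconazole (yeasts), linezolid (Gram-positives) and nitrofurantoin (Gram-negative rods).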"}, "[2]": {"test_system": "E. coli 77 CMY-2(+)", "experiment": "screening test of direct antimicrobial activity (STDA), disc-diffusion", "type": "cell-based", "conditions": "Escherichia coli; 0.3 mg per disc; - no zone; read-out: Diameter of inhibition zone around disc with tested agent", "protocol": "(§1) Prior to combination disc tests, screening tests of direct antimicrobial activity (STDA) of the tested agent against β-lactamase-producing strains were performed by the disc-diffusion method. Discs with 0.3 mg, 0.1 mg, and 0.03 mg of each agent were examined. The highest amount of an agent that caused no effect on bacterial growth was used in further experiments."}, "[3]": {"test_system": "K. pneumoniae ATCC 700603 ESBL(+)", "experiment": "screening test of direct antimicrobial activity (STDA), disc-diffusion", "type": "cell-based", "conditions": "Klebsiella pneumoniae, ATCC700603; 0.3 mg per disc; - no zone; read-out: Diameter of inhibition zone around disc with tested agent", "protocol": "as §1"}, "[4]": {"test_system": "K. pneumoniae ATCC BAA 1705 KPC(+)", "experiment": "screening test of direct antimicrobial activity (STDA), disc-diffusion", "type": "cell-based", "conditions": "Klebsiella pneumoniae, BAA1705; 0.3 mg per disc; - no zone; read-out: Diameter of inhibition zone around disc with tested agent", "protocol": "as §1"}, "[5]": {"test_system": "P. aeruginosa MUW 700 AmpC(+)", "experiment": "screening test of direct antimicrobial activity (STDA), disc-diffusion", "type": "cell-based", "conditions": "Pseudomonas aeruginosa; 0.3 mg per disc; - no zone; read-out: Diameter of inhibition zone around disc with tested agent", "protocol": "as §1"}, "[6]": {"test_system": "E. coli 76 KPC-2(+)", "experiment": "MIC of tested agent alone, microdilution", "type": "cell-based", "conditions": "Escherichia coli; read-out: MIC of agent alone", "how_it_was_run": "(§2)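 Checkerboard synergy testing crossed two-fold dilutions of the tested agents or PBA (4–16 mg/L) with β-lactam dilutions (1–64 mg/L), and antibiotic MICs were read at each agent level. FICI was derived from the interface wells. Separately, each agent's own MIC came from standard microdilution.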"}, "[7]": {"test_system": "E. coli 77 CMY-2(+)", "experiment": "MIC of tested agent alone, microdilution", "type": "cell-based", "conditions": "Escherichia coli; read-out: MIC of agent alone", "how_it_was_run": "as §2"}, "[8]": {"test_system": "K. pneumoniae 81 KPC-3(+)", "experiment": "MIC of tested agent alone, microdilution", "type": "cell-based", "conditions": "Klebsiella pneumoniae; read-out: MIC of agent alone", "how_it_was_run": "as §2"}, "[9]": {"test_system": "K. pneumoniae 83 KPC-3(+), CTX-M-3(+)", "experiment": "MIC of tested agent alone, microdilution", "type": "cell-based", "conditions": "Klebsiella pneumoniae; read-out: MIC of agent alone", "how_it_was_run": "as §2"}, "[10]": {"test_system": "K. pneumoniae ATCC BAA-1705 KPC-2(+)", "experiment": "MIC of tested agent alone, microdilution", "type": "cell-based", "conditions": "Klebsiella pneumoniae, ATCCBAA1705; read-out: MIC of agent alone", "how_it_was_run": "as §2"}, "[11]": {"test_system": "P. aeruginosa MUW 700 cAmpC-positive", "experiment": "combination disc test CDT-AmpC", "type": "cell-based", "conditions": "Pseudomonas aeruginosa; agent 0.1 mg per disc; read-out: Diameter of inhibition zone, CAZ-30 disc with agent"}, "[12]": {"test_system": "E. coli 76 KPC-2-positive", "experiment": "checkerboard microdilution, antibiotic plus tested agent", "type": "cell-based, Escherichia coli", "how_it_was_run": "(§3)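 β-lactam 1–64 mg/L × agent/PBA 4–16 mg/L checkerboard; meropenem vs carbapenemase producers, ceftazidime vs AmpC producer; imipenem, ertapenem added for selected agents. Readout: combination MICs, FICI (average and lowest); off-scale MICs taken as next doubling.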"}, "[13]": {"test_system": "E. coli 77 CMY-2-positive", "experiment": "checkerboard microdilution, antibiotic plus tested agent", "type": "cell-based, Escherichia coli", "how_it_was_run": "as §3"}, "[14]": {"test_system": "K. pneumoniae 81 KPC-3-positive", "experiment": "checkerboard microdilution, antibiotic plus tested agent", "type": "cell-based, Klebsiella pneumoniae", "how_it_was_run": "as §3"}, "[15]": {"test_system": "K. pneumoniae 83 KPC-3-positive, CTX-M-3-positive", "experiment": "checkerboard microdilution, antibiotic plus tested agent", "type": "cell-based, Klebsiella pneumoniae", "how_it_was_run": "as §3"}, "[16]": {"test_system": "K. pneumoniae ATCC BAA-1705 KPC-2-positive", "experiment": "checkerboard microdilution, antibiotic plus tested agent", "type": "cell-based, Klebsiella pneumoniae", "how_it_was_run": "as §3"}}}
{"compound": "OB(O)c1cc(F)c(B(O)O)c(F)c1", "note": "[1d]", "values": [{"measurement": "zone of inhibition at 0.4 mg/disc", "setting": "[1]", "result": 16, "unit": "mm"}, {"measurement": "MIC", "setting": "[1]", "result": 200, "unit": "µg/mL"}, {"measurement": "zone of inhibition at 300 µg/disc", "setting": "[2]", "result": 13, "unit": "mm"}, {"measurement": "zone of inhibition at 300 µg/disc", "setting": "[3]", "result": 14, "unit": "mm"}, {"measurement": "zone of inhibition at 300 µg/disc", "setting": "[4]", "result": 15, "unit": "mm"}, {"measurement": "zone of inhibition at 300 µg/disc", "setting": "[5]", "result": 12, "unit": "mm"}, {"measurement": "MIC", "setting": "[6]", "result": 400, "unit": "µg/mL"}, {"measurement": "MIC", "setting": "[7]", "result": 400, "unit": "µg/mL"}, {"measurement": "MIC", "setting": "[8]", "result": 400, "unit": "µg/mL"}, {"measurement": "MIC", "setting": "[9]", "result": 400, "unit": "µg/mL"}, {"measurement": "MIC", "setting": "[10]", "result": 400, "unit": "µg/mL"}, {"measurement": "zone of inhibition at 100 µg/disc", "setting": "[11]", "result": 17, "unit": "mm"}, {"measurement": "Average FICI with ERT", "setting": "[12]", "result": 0.36}, {"measurement": "Average FICI with IMI", "setting": "[12]", "result": 0.44}, {"measurement": "Average FICI with MEM", "setting": "[12]", "result": 0.44}, {"measurement": "The lowest FICI with ERT", "setting": "[12]", "result": 0.27}, {"measurement": "The lowest FICI with IMI", "setting": "[12]", "result": 0.29}, {"measurement": "The lowest FICI with MEM", "setting": "[12]", "result": 0.29}, {"measurement": "Average FICI with ceftazidime", "setting": "[13]", "result": 0.23}, {"measurement": "The lowest FICI with ceftazidime", "setting": "[13]", "result": 0.17}, {"measurement": "Average FICI with ERT", "setting": "[14]", "result": 0.40}, {"measurement": "Average FICI with IMI", "setting": "[14]", "result": 0.36}, {"measurement": "Average FICI with MEM", "setting": "[14]", "result": 0.29}, {"measurement": "The lowest FICI with ERT", "setting": "[14]", "result": 0.17}, {"measurement": "The lowest FICI with IMI", "setting": "[14]", "result": 0.27}, {"measurement": "The lowest FICI with MEM", "setting": "[14]", "result": 0.10}, {"measurement": "Average FICI with ERT", "setting": "[15]", "result": 0.69}, {"measurement": "Average FICI with IMI", "setting": "[15]", "result": 0.52}, {"measurement": "Average FICI with MEM", "setting": "[15]", "result": 0.61}, {"measurement": "The lowest FICI with ERT", "setting": "[15]", "result": 0.52}, {"measurement": "The lowest FICI with IMI", "setting": "[15]", "result": 0.51}, {"measurement": "The lowest FICI with MEM", "setting": "[15]", "result": 0.29}, {"measurement": "Average FICI with ERT", "setting": "[16]", "result": 0.86}, {"measurement": "Average FICI with IMI", "setting": "[16]", "result": 0.69}, {"measurement": "Average FICI with MEM", "setting": "[16]", "result": 0.44}, {"measurement": "The lowest FICI with ERT", "setting": "[16]", "result": 0.54}, {"measurement": "The lowest FICI with IMI", "setting": "[16]", "result": 0.52}, {"measurement": "The lowest FICI with MEM", "setting": "[16]", "result": 0.29}]}
{"compound": "OB(O)c1ccc(B(O)O)c(F)c1", "note": "[1b]", "values": [{"measurement": "zone of inhibition at 0.4 mg/disc", "setting": "[1]", "result": 24, "unit": "mm"}, {"measurement": "MIC", "setting": "[1]", "result": 400, "unit": "µg/mL"}, {"measurement": "zone of inhibition at 300 µg/disc", "setting": "[2]", "result": 12, "unit": "mm"}, {"measurement": "zone of inhibition at 300 µg/disc", "setting": "[3]", "result": 12, "unit": "mm"}, {"measurement": "zone of inhibition at 300 µg/disc", "setting": "[4]", "result": 13, "unit": "mm"}, {"measurement": "zone of inhibition at 300 µg/disc", "setting": "[5]", "result": 12, "unit": "mm"}, {"measurement": "MIC", "setting": "[6]", "result": 400, "unit": "µg/mL"}, {"measurement": "MIC", "setting": "[7]", "result": 400, "unit": "µg/mL"}, {"measurement": "MIC", "setting": "[8]", "result": "> 400", "unit": "µg/mL"}, {"measurement": "MIC", "setting": "[9]", "result": "> 400", "unit": "µg/mL"}, {"measurement": "MIC", "setting": "[10]", "result": "> 400", "unit": "µg/mL"}, {"measurement": "zone of inhibition at 100 µg/disc", "setting": "[11]", "result": 20, "unit": "mm"}, {"measurement": "Average FICI with ERT", "setting": "[12]", "result": 0.32}, {"measurement": "Average FICI with IMI", "setting": "[12]", "result": 0.32}, {"measurement": "Average FICI with MEM", "setting": "[12]", "result": 0.36}, {"measurement": "The lowest FICI with ERT", "setting": "[12]", "result": 0.17}, {"measurement": "The lowest FICI with IMI", "setting": "[12]", "result": 0.17}, {"measurement": "The lowest FICI with MEM", "setting": "[12]", "result": 0.27}, {"measurement": "Average FICI with ceftazidime", "setting": "[13]", "result": 0.17}, {"measurement": "The lowest FICI with ceftazidime", "setting": "[13]", "result": 0.10}, {"measurement": "Average FICI with ERT", "setting": "[14]", "result": 0.43}, {"measurement": "Average FICI with IMI", "setting": "[14]", "result": 0.35}, {"measurement": "Average FICI with MEM", "setting": "[14]", "result": 0.28}, {"measurement": "The lowest FICI with ERT", "setting": "[14]", "result": 0.27}, {"measurement": "The lowest FICI with IMI", "setting": "[14]", "result": 0.26}, {"measurement": "The lowest FICI with MEM", "setting": "[14]", "result": 0.08}, {"measurement": "Average FICI with ERT", "setting": "[15]", "result": 0.43}, {"measurement": "Average FICI with IMI", "setting": "[15]", "result": 0.43}, {"measurement": "Average FICI with MEM", "setting": "[15]", "result": 0.60}, {"measurement": "The lowest FICI with ERT", "setting": "[15]", "result": 0.27}, {"measurement": "The lowest FICI with IMI", "setting": "[15]", "result": 0.27}, {"measurement": "The lowest FICI with MEM", "setting": "[15]", "result": 0.27}, {"measurement": "Average FICI with ERT", "setting": "[16]", "result": 0.51}, {"measurement": "Average FICI with IMI", "setting": "[16]", "result": 0.43}, {"measurement": "Average FICI with MEM", "setting": "[16]", "result": 0.43}, {"measurement": "The lowest FICI with ERT", "setting": "[16]", "result": 0.51}, {"measurement": "The lowest FICI with IMI", "setting": "[16]", "result": 0.27}, {"measurement": "The lowest FICI with MEM", "setting": "[16]", "result": 0.27}]}
